# Reference: patent US8895497B2, “Cathepsin S inhibitors” (DCB-USA, LLC, priority 2009, dated 2014)
# What was measured:
# [1] = test system: human A2058 melanoma cells; assay: Migration/invasion of A2058 melanoma cells; assay type: cell-based
# Procedure: (§1) The cancer cell migration assay was performed in 96-wll-MultiScreen-MIC plates (Millipore) with 8 μm-pore-sized polycarbonate membrane. Briefly, highly-metastatic human lung adenocarcinoma CL1-5 cells were placed onto the upper chamber (2×10^4 cells/well) with tested compounds in complete medium (RPMI 1640 medium containing 1% FBS) and only medium placed onto the lower chamber. The chamber culture was incubated for 24 h at 37° C. and, then, the non-migrated cells were washed off the upper surface of the membrane. The migrated cells on the bottom side were dissociated with Cell Detachment Buffer (Chemicon, Inc.), lysed and stained for nucleic acids with CyQuant GR dye (Molecular Probes). The signal intensities were measured using a fluorescence reader (VICTORTIM 1420 Multilabel Counter, Wallac) at excitation wavelength of 485 nm and emission wavelength of 535 nm (1 sec). The result was presented as the average values from three independent experiments performed in duplicates.
# (§2) Similarly, Compounds 1 and 118 were tested against human A2058 melanoma cells and pancreatic cancer cells.
# A2058 melanoma cells = assay: In vivo assay, mice inoculated with A2058 melanoma cells; set-up: species or system BALB/cAnN-Foxn1nu/CrlNarl female mice
# Procedure: BALB/cAnN-Foxn1nu/CrlNarl female mice were inoculated with A2058 melanoma cells. On day 7, 12 mice were treated i.v. with Compound 1 in DMSO (mg/kg) and 8 mice were treated with DMSO as control. The treatment was continued for 72 days. The mice were sacrificed and their lungs were weighted.
# pancreatic cancer cells = assay: Migration/invasion of pancreatic cancer cells; assay type: cell-based, human
# Procedure: as §1, §2
SMILES,inhibition of migratory and invasice abilities of A2058 melanoma cells [1],"lung weights (A2058 melanoma cells; A2058 inoculated mice, i.v. in DMSO from day 7, treatment continued for 72 days, DMSO control 0.671 g) [g]","inhibition of cancer growth in A2058 inoculated mice (A2058 melanoma cells; i.v. in DMSO, 72 days)",inhibition of migratory and invasice abilities of pancreatic cancer cells (pancreatic cancer cells)
"CCOC(=O)CNC(=O)C(=O)[C@H](COCc1ccccc1)NC(=O)[C@H](CC(C)C)NC(=O)c1cccc2c1C(=O)c1ccccc1-2 (stereo in doubt) [Compound 1, Ethyl 2-(4-(benzyloxy)-3-[((2R)-4-methyl-2-[(9-oxo-9H-1-fluorenyl)carbonyl]aminopropanoyl)amino]-2-oxobutanoylamino)acetate]",effectively inhibited migratory and invasice abilities,0.471,effectively inhibited cancer growth,
O=C(NCCC1CCCCC1)C(O)[C@H](CCc1ccccc1)NC(=O)[C@H](CC1CCCCC1)NC(=O)N1CCOCC1 (stereo partly shown) [Compound 118],,,,effective inhibited migratory and invasice abilities
